Laboratory results as given in patent US20230233469A1, “SEMI-SOLID FORMULATION FOR VOLUNTARY ORAL ADMINISTRATION OF BIOACTIVE COMPOUNDS TO RODENTS” (priority 2020, published 2023).

Conditions: 80 mg/Kg body weight in semi-solid pill
Text: Data are presented as mean±S.E.M. (n=6-8 experimental group).

CC(=O)CC(c1ccccc1)c1c(O)c2ccccc2oc1=O (centres unmarked) [warfarin]
day of euthanasia for critical signs of illness (e.g. bleeding): 8 days
day post-administration from which poor health status and evident signs of toxicity appeared: 4 days
